Laboratory results from US20080206149A1, “METHOD, DYE AND MEDICAMENT FOR STAINING THE INTERNAL LIMITING MEMBRANE, EPIRETINAL MEMBRANE, THE VITREOUS AND/OR THE CAPSULE OF AN EYE” (LUDWIG-MAXIMILIANS-UNIVERSITAT MUNCHEN, priority 2005, published 2008).

Assays:
human lens capsule = assay: Capsulorhexis in patients with white cataracts (Example 2); type: in vivo
Excerpt: In previous experimental studies, we have investigated a number of vital dyes in-vivo and in-vitro in order to evaluate their staining characteristics and safety (C. Haritoglou, A. Yu, W. Freyer, S. G. Priglinger, C. Alge, K. Eibl, C. A. May, U. Welge-Luessen, A. Kampik, “An evaluation of novel vital dyes for intraocular surgery”, Invest Ophthalmol Vis Sci 46 (2005), pp. 3315-22; F. Schuettauf, C. Haritoglou, C. A. May, R. Rejdak, A. Mankowska, W. Freyer, K. Eibl, E. Zrenner, A. Kampik, S. Thaler, “Administration of novel dyes for intraocular surgery: an in vivo toxicity animal study”, Invest Ophthalmol Vis Sci 47 (2006), pp. 3573-8; C. Haritoglou, R. Tadayoni, C. A. May, C. A. Gass, W. Freyer, S. G. Priglinger, A. Kampik, “Short-term in vivo evaluation of novel vital dyes for intraocular surgery”, Retina 26 (2006), pp. 673-8). […] Prior to the application in humans, the toxicity of bromphenol blue had been thoroughly investigated in experimental settings including ex-vivo cell culture models and in-vivo animal studies with intraocular exposure times of up to seven days (C. Haritoglou, A. Yu, W. Freyer, S. G. Priglinger, C. Alge, K. Eibl, C. A. May, U. Welge-Luessen, A. Kampik, “An evaluation of novel vital dyes for intraocular surgery”, Invest Ophthalmol Vis Sci 46 (2005), pp. 3315-22; F. Schuettauf, C. Haritoglou, C. A. May, R. Rejdak, A. Mankowska, W. Freyer, K. Eibl, E. Zrenner, A. Kampik, S. Thaler, “Administration of novel dyes for intraocular surgery: an in vivo toxicity animal study”, Invest Ophthalmol Vis Sci 47 (2006), pp. 3573-8; C. Haritoglou, R. Tadayoni, C. A. May, C. A. Gass, W. Freyer, S. G. Priglinger, A. Kampik, “Short-term in vivo evaluation of novel vital dyes for intraocular surgery”, Retina 26 (2006), pp. 673-8). […] The data obtained from these toxicity studies underlined the high biocompatibility of bromphenol blue. Bromphenol blue (C19H10Br4O5S, FW 670) has been used in the past as a vital stain to probe the blood-brain barrier and as a protein stain and as a pH indicator. In the present example, we describe experience using bromphenol blue to stain the human lens capsule in patients with white cataracts. This investigation was approved by the local ethics committee and the Institutional Review Board (IRB). Written informed consent was obtained from all patients prior to surgery.
Cataract formation was due to ocular trauma (n=2), uveitis (n=1) and unknown cause (n=2). Mean age was 59 years. All patients underwent a complete clinical examination before surgery. B-scan ultrasound of the globe was performed to rule out intraocular pathologies such as tumors or retinal detachments. Bromphenol blue powder was dissolved and diluted using BSS plus (balanced salt solution; Alcon Laboratories Inc., Fort Worth, Tex, USA) and sterilized using a 0.22 μm syringe filter. We used dye concentrations of approximately 0.1% (310 mOsm, pH 7.6). Five consecutive patients were included into this preliminary series of patients, three female and two male. Visual acuity was 20/400 or below before surgery and increased to 20/50 (mean) postoperatively. The dye was either injected into the air-filled (n=3) anterior chamber and carefully removed by injection of viscoelastic material (FIG. 7) immediately after injection or injected after having filled the anterior chamber with viscoelastic material (n=2) without prior air injection. In the latter case, the dye was evenly and gently distributed on the lens surface using the cannula and excessive dye was removed after completion of capsulorhexis (approximately one minute after application).

anterior lens capsule = details: previous experimental studies; cited from earlier work
[1] = approximately 0.1% dye, white cataract patients

O=S1(=O)OC(c2cc(Br)c(O)c(Br)c2)(c2cc(Br)c(O)c(Br)c2)c2ccccc21 [Bromophenol blue, Bromophenole blue]
contrast between the white lens and the stained lens capsule (human lens capsule; all patients): excellent contrast
visual acuity before surgery (human lens capsule; [1]): 20/400
visual acuity postoperatively (mean) (human lens capsule; [1]): 20/50
staining of the anterior lens capsule (human lens capsule; approximately 0.1%, both injection techniques): predictable and uniform staining
complications such as corneal edema, inflammation or decrease of corneal endothelial cells (human lens capsule; follow-up up to five months postoperatively): no complications noted
penetration of the lens capsule by the dye (human lens capsule; human, in vivo): did not penetrate the lens capsule
unwanted staining of other tissues such as the iris or the corneal endothelium (human lens capsule; human, in vivo): no unwanted staining of other tissues
residual dye on the anterior lens capsule rim or any other ocular tissue (human lens capsule; one day postoperatively): no residual dye was detected
safety for intraocular application (anterior lens capsule): safe for intraocular application
staining of the anterior lens capsule (anterior lens capsule): strongly stain
